In patent US20240057603A1, “ISOCYCLOSERAM FORMULATION” (SYNGENTA CROP PROTECTION AG, priority 2020, published 2024):

Assay: physchem
Conditions: 20 °C

CCN1OCC(NC(=O)c2ccc(C3=NOC(c4cc(Cl)c(F)c(Cl)c4)(C(F)(F)F)C3)cc2C)C1=O (stereo not shown) [Isocycloseram]
solubility: < 5 µg/mL
